Test results taken from the supplement of paper PMC13207355.

Assays:
Details in all cases: exposure time: 72 h
[1] = tested on: E13 (patient-derived glioblastoma stem cells of classical subtype); assay: surviving fraction (nuclei count normalised to DMSO); higher = more cells surviving (less toxic)
[2] = tested on: E28 (patient-derived glioblastoma stem cells of classical subtype); assay: as above
[3] = tested on: E31 (patient-derived glioblastoma stem cells of proneural subtype); assay: as above
[4] = tested on: E34 (patient-derived glioblastoma stem cells of proneural subtype); assay: as above
[5] = tested on: E21 (patient-derived glioblastoma stem cells of mesenchymal subtype); assay: as above
[6] = tested on: E57 (patient-derived glioblastoma stem cells of mesenchymal subtype); assay: as above
[7] = tested on: FT3469 (normal neural stem cell line); assay: as above
[8] = tested on: E13; assay: phenotypic distance (Euclidean, principal components) from DMSO controls (arbitrary units); higher = stronger morphological change
[9] = tested on: E28; assay: as above
[10] = tested on: E31; assay: as above
[11] = tested on: E34; assay: as above
[12] = tested on: E21; assay: as above
[13] = tested on: E57; assay: as above
[14] = tested on: FT3469; assay: as above
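For phenotypic distance (Euclidean, principal components) from DMSO controls in this document: cell Painting imaging in 384-well plates, CellProfiler features reduced to at least 20 principal components, Euclidean distance versus same-plate DMSO vehicle wells (0.1% v/v), median over six images per well.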
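For surviving fraction (nuclei count normalised to DMSO) in this document: nuclei counted by high-content imaging of Hoechst-stained cells in laminin-coated 384-well plates, relative to 0.1% DMSO vehicle wells, with staurosporine as cell-death control.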

CC1CNc2c(cccc2S(=O)(=O)N[C@@H](CCCNC(=N)N)C(=O)N2CC[C@@H](C)C[C@@H]2C(=O)O)C1 (stereo partly specified) [Argatroban]
Details	phenotypic distance	surviving fraction
[1], 4.1 nM	–	0.887
[1], 12.3 nM	–	0.726
[1], 37 nM	–	1.06
[1], 111.1 nM	–	0.787
[1], 333.3 nM	–	1.03
[1], 1000 nM	–	0.955
[1], 3000 nM	–	1.04
[2], 4.1 nM	–	0.975
[2], 12.3 nM	–	0.963
[2], 37 nM	–	0.877
[2], 111.1 nM	–	1.3
[2], 333.3 nM	–	1.01
[2], 1000 nM	–	1.14
[2], 3000 nM	–	1.16
[3], 4.1 nM	–	1.08
[3], 12.3 nM	–	0.893
[3], 37 nM	–	0.911
[3], 111.1 nM	–	0.95
[3], 333.3 nM	–	0.959
[3], 1000 nM	–	1.04
[3], 3000 nM	–	1.12
[4], 4.1 nM	–	1.04
[4], 12.3 nM	–	1.04
[4], 37 nM	–	0.976
[4], 111.1 nM	–	0.935
[4], 333.3 nM	–	1.05
[4], 1000 nM	–	1.13
[4], 3000 nM	–	0.923
[5], 4.1 nM	–	0.935
[5], 12.3 nM	–	0.953
[5], 37 nM	–	0.963
[5], 111.1 nM	–	0.778
[5], 333.3 nM	–	1.07
[5], 1000 nM	–	1.08
[5], 3000 nM	–	1.11
[6], 4.1 nM	–	1.01
[6], 12.3 nM	–	1.03
[6], 37 nM	–	0.918
[6], 111.1 nM	–	1.04
[6], 333.3 nM	–	1.04
[6], 1000 nM	–	1.01
[6], 3000 nM	–	0.888
[7], 4.1 nM	–	0.74
[7], 12.3 nM	–	0.878
[7], 37 nM	–	0.961
[7], 111.1 nM	–	0.906
[7], 333.3 nM	–	1.09
[7], 1000 nM	–	0.99
[7], 3000 nM	–	0.886
[8], 4.1 nM	0.936	–
[8], 12.3 nM	1.03	–
[8], 37 nM	0.706	–
[8], 111.1 nM	0.818	–
[8], 333.3 nM	0.637	–
[8], 1000 nM	0.667	–
[8], 3000 nM	0.543	–
[9], 4.1 nM	0.894	–
[9], 12.3 nM	0.602	–
[9], 37 nM	0.844	–
[9], 111.1 nM	0.794	–
[9], 333.3 nM	0.356	–
[9], 1000 nM	0.549	–
[9], 3000 nM	0.893	–
[10], 4.1 nM	0.911	–
[10], 12.3 nM	0.664	–
[10], 37 nM	0.863	–
[10], 111.1 nM	0.601	–
[10], 333.3 nM	2.25	–
[10], 1000 nM	0.919	–
[10], 3000 nM	0.822	–
[11], 4.1 nM	0.682	–
[11], 12.3 nM	0.667	–
[11], 37 nM	0.842	–
[11], 111.1 nM	0.535	–
[11], 333.3 nM	0.743	–
[11], 1000 nM	1.04	–
[11], 3000 nM	1.26	–
[12], 4.1 nM	1.43	–
[12], 12.3 nM	0.727	–
[12], 37 nM	1.18	–
[12], 111.1 nM	0.876	–
[12], 333.3 nM	1.26	–
[12], 1000 nM	1.01	–
[12], 3000 nM	1.26	–
[13], 4.1 nM	0.489	–
[13], 12.3 nM	0.826	–
[13], 37 nM	0.498	–
[13], 111.1 nM	0.438	–
[13], 333.3 nM	0.495	–
[13], 1000 nM	0.711	–
[13], 3000 nM	0.963	–
[14], 4.1 nM	3.82	–
[14], 12.3 nM	1.39	–
[14], 37 nM	0.709	–
[14], 111.1 nM	0.753	–
[14], 333.3 nM	0.744	–
[14], 1000 nM	0.391	–
[14], 3000 nM	1.07	–

Clc1ccc(CSC(Cn2ccnc2)c2ccc(Cl)cc2Cl)cc1 (stereo unspecified) [Sulconazole nitrate]
Details	phenotypic distance	surviving fraction
[1], 4.1 nM	–	0.897
[1], 12.3 nM	–	0.833
[1], 37 nM	–	0.964
[1], 111.1 nM	–	0.887
[1], 333.3 nM	–	0.841
[1], 1000 nM	–	0.82
[1], 3000 nM	–	0.799
[2], 4.1 nM	–	0.969
[2], 12.3 nM	–	0.978
[2], 37 nM	–	0.902
[2], 111.1 nM	–	0.886
[2], 333.3 nM	–	0.956
[2], 1000 nM	–	0.917
[2], 3000 nM	–	0.839
[3], 4.1 nM	–	0.929
[3], 12.3 nM	–	0.922
[3], 37 nM	–	1.01
[3], 111.1 nM	–	1.02
[3], 333.3 nM	–	0.984
[3], 1000 nM	–	1.09
[3], 3000 nM	–	1.17
[4], 4.1 nM	–	0.824
[4], 12.3 nM	–	1.02
[4], 37 nM	–	0.954
[4], 111.1 nM	–	0.957
[4], 333.3 nM	–	0.909
[4], 1000 nM	–	0.932
[4], 3000 nM	–	0.766
[5], 4.1 nM	–	0.956
[5], 12.3 nM	–	1.01
[5], 37 nM	–	1.03
[5], 111.1 nM	–	0.956
[5], 333.3 nM	–	0.962
[5], 1000 nM	–	0.952
[5], 3000 nM	–	0.859
[6], 4.1 nM	–	0.975
[6], 12.3 nM	–	0.945
[6], 37 nM	–	0.995
[6], 111.1 nM	–	0.972
[6], 333.3 nM	–	1.07
[6], 1000 nM	–	1.03
[6], 3000 nM	–	0.934
[7], 4.1 nM	–	0.831
[7], 12.3 nM	–	1.03
[7], 37 nM	–	0.945
[7], 111.1 nM	–	0.801
[7], 333.3 nM	–	0.934
[7], 1000 nM	–	0.869
[7], 3000 nM	–	0.734
[8], 4.1 nM	0.507	–
[8], 12.3 nM	0.659	–
[8], 37 nM	0.68	–
[8], 111.1 nM	0.822	–
[8], 333.3 nM	1.02	–
[8], 1000 nM	1.17	–
[8], 3000 nM	0.957	–
[9], 4.1 nM	0.745	–
[9], 12.3 nM	0.557	–
[9], 37 nM	0.545	–
[9], 111.1 nM	0.553	–
[9], 333.3 nM	0.469	–
[9], 1000 nM	0.567	–
[9], 3000 nM	0.697	–
[10], 4.1 nM	0.532	–
[10], 12.3 nM	0.425	–
[10], 37 nM	0.596	–
[10], 111.1 nM	0.731	–
[10], 333.3 nM	1.14	–
[10], 1000 nM	1.17	–
[10], 3000 nM	1.4	–
[11], 4.1 nM	1.17	–
[11], 12.3 nM	0.4	–
[11], 37 nM	0.413	–
[11], 111.1 nM	0.586	–
[11], 333.3 nM	0.864	–
[11], 1000 nM	0.895	–
[11], 3000 nM	1.02	–
[12], 4.1 nM	0.971	–
[12], 12.3 nM	4.31	–
[12], 37 nM	0.531	–
[12], 111.1 nM	0.857	–
[12], 333.3 nM	1.11	–
[12], 1000 nM	0.859	–
[12], 3000 nM	1.68	–
[13], 4.1 nM	0.709	–
[13], 12.3 nM	0.952	–
[13], 37 nM	0.398	–
[13], 111.1 nM	0.55	–
[13], 333.3 nM	0.671	–
[13], 1000 nM	0.779	–
[13], 3000 nM	1.99	–
[14], 4.1 nM	0.821	–
[14], 12.3 nM	0.617	–
[14], 37 nM	0.893	–
[14], 111.1 nM	0.999	–
[14], 333.3 nM	1.06	–
[14], 1000 nM	0.92	–
[14], 3000 nM	1.39	–
